Experimental data: the supplement of paper PMC10307832

Compound: CN1CCC(CC1)OC2=CC(=C(C=C2)NC3=NC=C4C(=N3)N(C(=O)N4C)C5CCCC5)OC [AZ3146] + Cc1nc(NC(=O)N2CCC[C@H]2C(N)=O)sc1-c1ccnc(C(C)(C)C(F)(F)F)c1 [Alpelisib] (partner 2 µM)
Assay: relative viability (nuclei count vs DMSO), 5 days (fraction); higher = more cells survive
Conditions: first compound 8 µM
Procedure, shortened: (§1)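 Relative viability was taken as the ratio of nuclei in treated wells to nuclei in vehicle wells. Lung cancer cell lines in 1536-well plates received compounds by pin tool one day after seeding, either one drug alone or a fixed anchor-drug dose plus five library-drug doses (not always all listed) in √10 steps. Nuclei were counted on 4× images after 5 days of treatment, and values are medians of duplicate plates.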

Row | Cell Line | relative viability
1 | NCI-H1915 | 1.04
2 | NCI-H2087 | 0.953
3 | HCC-366 | 0.393

Compound: CCOC(=O)CCNc1cc(N2CCc3ccccc3CC2)nc(-c2ccccn2)n1 [GSK-J4] + Cc1cc(Nc2cc(N3CCN(C)CC3)nc(Sc3ccc(NC(=O)C4CC4)cc3)n2)n[nH]1 [Tozasertib] (partner 0.1 µM)
Assay: as above
Conditions: first compound 0.5 µM
Procedure, shortened: as §1

Row | Cell Line | relative viability
4 | NCI-H3122 | 0.516
5 | BEN | 0.514
6 | NCI-H1395 | 0.806
7 | 201T | 0.801
8 | NCI-H1993 | 0.51
9 | NCI-H1355 | 0.517
10 | NCI-H2405 | 0.743
11 | NCI-H1437 | 0.391
12 | H3255 | 0.519
13 | NCI-H2347 | 0.573
14 | NCI-H1975 | 0.721
15 | NCI-H441 | 0.595
16 | NCI-H1915 | 0.404
17 | NCI-H2087 | 0.265
18 | HCC-366 | 0.138

Same assay, conditions: first compound 1.581 µM

Row | Cell Line | relative viability
19 | BEN | 0.41
20 | NCI-H1395 | 0.864
21 | 201T | 0.971
22 | NCI-H1993 | 0.562
23 | NCI-H1355 | 0.517
24 | NCI-H2405 | 0.703
25 | NCI-H1437 | 0.372
26 | H3255 | 0.622
27 | NCI-H2347 | 0.452
28 | NCI-H1975 | 0.716
29 | NCI-H441 | 0.634
30 | NCI-H1915 | 0.395
31 | HCC-366 | 0.0869

Same assay, conditions: first compound 5 µM

Row | Cell Line | relative viability
32 | NCI-H3122 | 0.371
33 | BEN | 0.609
34 | NCI-H1395 | 0.728
35 | 201T | 0.96
36 | NCI-H1993 | 0.646
37 | NCI-H1355 | 0.575
38 | NCI-H1437 | 0.384
39 | H3255 | 0.539
40 | NCI-H2347 | 0.534
41 | NCI-H1975 | 0.539
42 | NCI-H441 | 0.526
43 | NCI-H2087 | 0.281

Same assay, conditions: first compound 15.81 µM

Row | Cell Line | relative viability
44 | NCI-H3122 | 0.275
45 | BEN | 0.375
46 | NCI-H1395 | 0.687
47 | 201T | 0.901
48 | NCI-H1993 | 0.503
49 | NCI-H1355 | 0.439
50 | NCI-H2405 | 0.719
51 | NCI-H1437 | 0.377
52 | H3255 | 0.531
53 | NCI-H1975 | 0.659
54 | NCI-H441 | 0.559
55 | NCI-H1915 | 0.409
56 | NCI-H2087 | 0.217
57 | HCC-366 | 0.083

Same assay, conditions: first compound 50 µM

Row | Cell Line | relative viability
58 | NCI-H3122 | 0.442
59 | BEN | 0.492
60 | NCI-H1395 | 0.614
61 | 201T | 0.836
62 | NCI-H1993 | 0.497
63 | NCI-H1355 | 0.437
64 | NCI-H2405 | 0.671
65 | NCI-H1437 | 0.293
66 | H3255 | 0.508
67 | NCI-H2347 | 0.476
68 | NCI-H1975 | 0.798
69 | NCI-H441 | 0.494
70 | NCI-H1915 | 0.337
71 | NCI-H2087 | 0.251
72 | HCC-366 | 0.0821

Compound: CCOC(=O)CCNc1cc(N2CCc3ccccc3CC2)nc(-c2ccccn2)n1 [GSK-J4] + COc1cc2c(Oc3ccc(NC(=O)C4(C(=O)Nc5ccc(F)cc5)CC4)cc3F)ccnc2cc1OCCCN1CCOCC1 [Foretinib] (partner 0.25 µM)
Assay: as above
Conditions: first compound 0.5 µM
Procedure, shortened: as §1

Row | Cell Line | relative viability
73 | NCI-H3122 | 0.983
74 | BEN | 0.857
75 | NCI-H1395 | 0.937
76 | 201T | 1.1
77 | NCI-H1993 | 0.789
78 | NCI-H1355 | 0.878
79 | NCI-H2405 | 1.06
80 | NCI-H1437 | 1.29
81 | H3255 | 0.856
82 | NCI-H2347 | 1.16
83 | NCI-H1975 | 0.947
84 | NCI-H441 | 0.962
85 | NCI-H1915 | 1.04
86 | NCI-H2087 | 0.973
87 | HCC-366 | 0.955

Same assay, conditions: first compound 1.581 µM

Row | Cell Line | relative viability
88 | NCI-H3122 | 1.01
89 | BEN | 0.593
90 | NCI-H1395 | 0.983
91 | 201T | 1.09
92 | NCI-H1993 | 0.74
93 | NCI-H1355 | 0.837
94 | NCI-H2405 | 0.948
95 | NCI-H1437 | 0.715
96 | H3255 | 0.85
97 | NCI-H2347 | 0.716
98 | NCI-H1975 | 0.785
99 | NCI-H441 | 0.875
100 | NCI-H1915 | 1.03
101 | HCC-366 | 0.881

Same assay, conditions: first compound 5 µM

Row | Cell Line | relative viability
102 | NCI-H3122 | 0.938
103 | NCI-H1395 | 0.865
104 | 201T | 1.07
105 | NCI-H1993 | 0.796
106 | NCI-H1355 | 1.08
107 | NCI-H1437 | 1.23
108 | H3255 | 0.846
109 | NCI-H2347 | 1.06
110 | NCI-H1975 | 0.732
111 | NCI-H441 | 1.1
112 | NCI-H2087 | 1.13

Same assay, conditions: first compound 15.81 µM

Row | Cell Line | relative viability
113 | NCI-H3122 | 1.05
114 | BEN | 0.588
115 | NCI-H1395 | 0.973
116 | 201T | 0.923
117 | NCI-H1993 | 0.556
118 | NCI-H1355 | 0.839
119 | NCI-H2405 | 0.98
120 | NCI-H1437 | 1.24
121 | H3255 | 0.844
122 | NCI-H2347 | 0.843
123 | NCI-H1975 | 0.95
124 | NCI-H441 | 0.906
125 | NCI-H1915 | 1.06
126 | NCI-H2087 | 1.1
127 | HCC-366 | 0.915

Same assay, conditions: first compound 50 µM

Row | Cell Line | relative viability
128 | NCI-H3122 | 0.969
129 | BEN | 0.53
130 | NCI-H1395 | 0.946
131 | 201T | 1.06
132 | NCI-H1993 | 0.549
133 | NCI-H1355 | 0.859
134 | NCI-H2405 | 1.04
135 | NCI-H1437 | 0.766
136 | H3255 | 0.804
137 | NCI-H2347 | 0.826
138 | NCI-H1975 | 1.04
139 | NCI-H441 | 0.759
140 | NCI-H1915 | 0.523
141 | NCI-H2087 | 0.818
142 | HCC-366 | 0.874
